Test systems include CAKI-1; HCT-15; HOP-62; HOP-92; Hs-578T; IGROV-1; K562; KM12; MDA-MB-231; OVCAR-3; PC-3; RXF 393; SF-268; SF-295; SF-539; SK-MEL-5; SNB-75; UACC-257; UACC-62.
Common to all, as to test: NCI-60 cell line screen, 48 h

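Step 1: Grow cells in 96-well plates. Step 2: Expose to compound for 48 hours at 5 concentrations. Step 3: Interpolate endpoints linearly; if unreached, use highest concentration. GI50 = concentration required for 50% inhibition of growth.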 Calls of active or inactive are those of the source. Rule as the data show it: active = GI50 up to about 1.1 µM and inactive = higher.

Take `NS(=O)(=O)c1nnc(NC(=O)N(c2ccccc2)c2ccccc2)s1`: the GI50 with CAKI-1 is 28.6 µM (inactive); in the assay on HCT-15 it was 22.5 µM; with HOP-62 it was 27.2 µM (inactive); with HOP-92 it was 19.1 µM (inactive); with Hs-578T it was 25 µM (inactive); in the assay with IGROV-1, 17.7 µM (inactive). The GI50 was 33.5 µM (inactive) in the assay on K562; 21.6 µM (inactive) in the assay on KM12; 70.1 µM (inactive) in the assay with MDA-MB-231; 19.5 µM (inactive) with OVCAR-3; 33 µM (inactive) with PC-3; 18.4 µM (inactive) in the assay on RXF 393. Moreover, the GI50 with SF-268 is 30.3 µM (inactive); in the assay with SF-295 it was 34 µM (inactive); in the assay with SF-539, 17.6 µM (inactive); in the assay with SK-MEL-5, 22.7 µM (inactive); in the assay on SNB-75 it was 18.5 µM (inactive); in the assay on UACC-257, 36.1 µM (inactive). The GI50 in the assay with UACC-62 is 21.9 µM (inactive).
Consider `CC1=C(Br)C(=O)C(C)=C(Br)C1=O.Cc1c(O)c(Br)c(C)c(O)c1Br`, for which the GI50 was 2.14 µM (inactive) in the assay with CAKI-1; 2.07 µM in the assay on HCT-15; 12 µM (inactive) with HOP-62; 1.78 µM (inactive) with HOP-92; 5.92 µM (inactive) in the assay with Hs-578T; 7.83 µM (inactive) in the assay on IGROV-1. The GI50 in the assay on K562 is 1.41 µM (inactive); with KM12, 19.4 µM (inactive); with MDA-MB-231, 4.4 µM (inactive); in the assay with OVCAR-3, 1.83 µM (inactive); with PC-3, 2.05 µM (inactive); in the assay on RXF 393 it was 1.88 µM (inactive). Further, the GI50 in the assay with SF-268 is 4.17 µM (inactive); in the assay with SF-295, 16.3 µM (inactive); in the assay on SF-539 it was 4.78 µM (inactive); with SK-MEL-5, 4.22 µM (inactive); with SNB-75, 14.2 µM (inactive); in the assay on UACC-257, 1.6 µM (inactive). Besides, the GI50 with UACC-62 is 5.55 µM (inactive).
`Oc1c(/N=N/c2ccccc2)c2ccccc2c2ccc3ccccc3c12`: the GI50 in the assay with CAKI-1 was 48.6 µM (inactive); in the assay on HCT-15, > 100 µM; in the assay with HOP-62 it was 43.6 µM (inactive); in the assay on HOP-92, 38.2 µM (inactive); in the assay with Hs-578T, 62.8 µM (inactive); in the assay with IGROV-1, > 100 µM (inactive). Also, the GI50 in the assay with K562 is 35.3 µM (inactive); in the assay with KM12 it was > 100 µM (inactive); in the assay with MDA-MB-231, 78.3 µM (inactive); in the assay with OVCAR-3, > 100 µM (inactive); with PC-3, 73.8 µM (inactive); with RXF 393, 56.1 µM (inactive). The GI50 is > 100 µM (inactive) with SF-268; 50.5 µM (inactive) with SF-295; 34.5 µM (inactive) in the assay with SF-539; > 100 µM (inactive) in the assay with SK-MEL-5; 64.1 µM (inactive) in the assay with SNB-75; > 100 µM (inactive) in the assay on UACC-257. In the assay on UACC-62, the GI50 was 66.1 µM (inactive).
On to `c1ccc(N2N=C3N(c4ccccc4)C2N3c2ccccc2)cc1`, for which the GI50 is 88.7 µM (inactive) in the assay on CAKI-1; 42.9 µM in the assay with HCT-15; 58.2 µM (inactive) in the assay with HOP-62; 14.1 µM (inactive) with HOP-92; 57.7 µM (inactive) with Hs-578T; 31.4 µM (inactive) with IGROV-1. Also, the GI50 in the assay on K562 was 14.7 µM (inactive); with KM12, 33.7 µM (inactive); in the assay on MDA-MB-231, 57.3 µM (inactive); in the assay on OVCAR-3, 36.6 µM (inactive); with PC-3, 44.5 µM (inactive); in the assay on RXF 393, 45.3 µM (inactive). Besides, the GI50 was 52.8 µM (inactive) in the assay with SF-268; 36.1 µM (inactive) in the assay with SF-295; 22.3 µM (inactive) in the assay with SF-539; 21.6 µM (inactive) with SK-MEL-5; 17.8 µM (inactive) in the assay on SNB-75; 23.1 µM (inactive) in the assay with UACC-257. For the same compound, the GI50 in the assay on UACC-62 is 25.6 µM (inactive).
`Clc1cccc(Cl)c1C1ON=C(c2ccccc2)N1C12CC3CC(CC(C3)C1)C2` (centres undefined): the GI50 in the assay on CAKI-1 is 40.9 µM (inactive); in the assay with HCT-15, 9.75 µM; in the assay with HOP-62, 31.6 µM (inactive); with HOP-92 it was 13.3 µM (inactive); in the assay on Hs-578T, 24.2 µM (inactive); in the assay on IGROV-1, 29.1 µM (inactive). Moreover, the GI50 was 6.7 µM (inactive) in the assay with K562; 1.63 µM (inactive) with KM12; 10.1 µM (inactive) with MDA-MB-231; 9.38 µM (inactive) in the assay with OVCAR-3; 4.11 µM (inactive) in the assay with PC-3; 39.1 µM (inactive) in the assay with RXF 393. Further, the GI50 with SF-268 is 82 µM (inactive); in the assay with SF-295, > 100 µM (inactive); with SF-539 it was 66.1 µM (inactive); in the assay with SK-MEL-5 it was 4.57 µM (inactive); with SNB-75, 0.387 µM (active); in the assay on UACC-257, 3.29 µM (inactive). Also, the GI50 in the assay on UACC-62 was 24 µM (inactive).
Take `COc1c(Cl)c(=O)oc2ccc(Cl)cc12`: the GI50 was > 100 µM (inactive) with CAKI-1; > 100 µM in the assay on HCT-15; > 100 µM (inactive) with HOP-62; 25.2 µM (inactive) with HOP-92; > 100 µM (inactive) in the assay with Hs-578T; > 100 µM (inactive) with IGROV-1. In addition, the GI50 with K562, in the assay on KM12, in the assay with MDA-MB-231, in the assay with OVCAR-3, in the assay on PC-3 and in the assay on RXF 393 was > 100 µM (inactive) in each case. Moreover, the GI50 is > 100 µM (inactive) in the assay with SF-268; 53.2 µM (inactive) with SF-295; > 100 µM (inactive) with SF-539; > 100 µM (inactive) in the assay with SK-MEL-5; 39.9 µM (inactive) in the assay on SNB-75; > 100 µM (inactive) with UACC-257. Further, the GI50 in the assay on UACC-62 was > 100 µM (inactive).
Regarding `Cn1c(=S)[nH]c2sc3c(c2c1=O)CCSC3`, the GI50 in the assay with CAKI-1 is 44.8 µM (inactive); in the assay with HCT-15, 31 µM; in the assay on HOP-62, 25.9 µM (inactive); with HOP-92, 23.9 µM (inactive); in the assay on Hs-578T, > 100 µM (inactive); in the assay on IGROV-1, 23.9 µM (inactive). Also, the GI50 in the assay on K562 is 42.9 µM (inactive); in the assay with KM12, 32.1 µM (inactive); in the assay with MDA-MB-231, > 100 µM (inactive); with OVCAR-3 it was 24.8 µM (inactive); in the assay on PC-3, 44.2 µM (inactive); in the assay on RXF 393, 3.05 µM (inactive). Besides, the GI50 in the assay with SF-268 is 26.2 µM (inactive); in the assay with SF-295, 29.9 µM (inactive); in the assay with SF-539 it was 54.1 µM (inactive); with SK-MEL-5 it was 36 µM (inactive); in the assay with SNB-75 it was > 100 µM (inactive); with UACC-257, 41.8 µM (inactive). The GI50 in the assay with UACC-62 is 24.8 µM (inactive).
On to `Cc1cc2oc(=N)c(C#N)c(C)c2cc1C`, for which the GI50 in the assay with CAKI-1 was 57.8 µM (inactive); with HCT-15, 42.3 µM; with HOP-62, 52 µM (inactive); in the assay with HOP-92, 44.2 µM (inactive); with Hs-578T, 26.3 µM (inactive); with IGROV-1, 26.5 µM (inactive). Besides, the GI50 in the assay with K562 was 24.5 µM (inactive); in the assay on KM12, 39.9 µM (inactive); with MDA-MB-231 it was > 100 µM (inactive); with OVCAR-3, 70.1 µM (inactive); in the assay with PC-3 it was 36.9 µM (inactive); in the assay with RXF 393 it was 24.3 µM (inactive). Further, the GI50 was 44 µM (inactive) in the assay on SF-268; 44.6 µM (inactive) with SF-295; 62.8 µM (inactive) in the assay with SF-539; 30.7 µM (inactive) in the assay with SK-MEL-5; 19.1 µM (inactive) in the assay on SNB-75; > 100 µM (inactive) in the assay on UACC-257. Further, the GI50 in the assay on UACC-62 is 47.4 µM (inactive).
With `O=S(=O)(CC#CCS(=O)(=O)c1ccccc1)c1ccccc1`, the GI50 in the assay with CAKI-1 is 1.77 µM (inactive); with HCT-15, 1.35 µM; with HOP-62, 5.71 µM (inactive); in the assay with HOP-92 it was 1.61 µM (inactive); in the assay on Hs-578T it was 5.14 µM (inactive); in the assay on IGROV-1, 1.44 µM (inactive). For the same compound, the GI50 in the assay with K562 is 1.58 µM (inactive); in the assay with KM12, 12.4 µM (inactive); with MDA-MB-231 it was 11.6 µM (inactive); with OVCAR-3, 1.55 µM (inactive); in the assay on PC-3, 7.45 µM (inactive); in the assay with RXF 393 it was 1.67 µM (inactive). Moreover, the GI50 in the assay on SF-268 was 4.35 µM (inactive); in the assay on SF-295, 18.5 µM (inactive); in the assay with SF-539, 2.48 µM (inactive); in the assay with SK-MEL-5, 4.9 µM (inactive); in the assay with SNB-75, 1.48 µM (inactive); in the assay on UACC-257 it was 4.32 µM (inactive). For the same compound, the GI50 in the assay with UACC-62 is 3.55 µM (inactive).
As to `CC(=O)Nc1ccc2c3c(cc(O)c2c1)N(C(=O)CCCC(=O)N1CC(CCl)c2c1cc(O)c1cc(NC(C)=O)ccc21)CC3CCl` (centres undefined), the GI50 in the assay on CAKI-1 was < 0.01 µM (active); in the assay on HCT-15, 0.0773 µM; with HOP-62, < 0.01 µM (active); in the assay with HOP-92, 0.0199 µM (active); in the assay with Hs-578T it was 0.0285 µM (active); with IGROV-1 it was 0.0102 µM (active). Also, the GI50 in the assay on K562 is < 0.01 µM (active); in the assay on KM12, 0.0132 µM (active); in the assay on MDA-MB-231 it was < 0.01 µM (active); in the assay with OVCAR-3, 0.0111 µM (active); in the assay with PC-3, 0.0129 µM (active); in the assay with RXF 393, < 0.01 µM (active). Besides, the GI50 in the assay with SF-268 was < 0.01 µM (active); in the assay with SF-295, < 0.01 µM (active); with SF-539, 0.0223 µM (active); in the assay on SK-MEL-5 it was 0.0108 µM (active); with SNB-75, < 0.01 µM (active); in the assay with UACC-257 it was 0.0114 µM (active). For the same compound, in the assay with UACC-62, the GI50 was < 0.01 µM (active).
For `C(=C\c1ccccc1)/COc1ccccc1C(N1CCOCC1)n1nc2ccccc2n1` (centres undefined), the GI50 in the assay with CAKI-1 is 15.2 µM (inactive); in the assay with HCT-15, 1.82 µM; with HOP-62, 4.71 µM (inactive); in the assay on HOP-92 it was 5.15 µM (inactive); in the assay with Hs-578T, 7.24 µM (inactive); in the assay on IGROV-1, 7.98 µM (inactive). For the same compound, the GI50 in the assay with K562 is 1.19 µM (inactive); in the assay with KM12, 5.26 µM (inactive); in the assay on MDA-MB-231, 4.73 µM (inactive); with OVCAR-3, 2.18 µM (inactive); in the assay on PC-3, 2.59 µM (inactive); in the assay with RXF 393 it was 3.94 µM (inactive). Also, the GI50 with SF-268 was 5.71 µM (inactive); in the assay with SF-295, 8.95 µM (inactive); in the assay with SF-539, 2.59 µM (inactive); with SK-MEL-5 it was 3.33 µM (inactive); in the assay on SNB-75, 4.8 µM (inactive); in the assay with UACC-257, 5.51 µM (inactive). In the assay with UACC-62, the GI50 was 3 µM (inactive).

For the origin of these results see ChEMBL document CHEMBL1201862, “PubChem BioAssay data set” (2004).
